The structures appear in SMILES notation.

The values below come from ChEMBL document CHEMBL1140776, “Parasiticidal 2-alkoxy- and 2-aryloxyiminoalkyl trifluoromethanesulfonanilides” (2008).

What all share (format): functional
One experiment has as its system Haemonchus contortus. The experiment can be described thus: Parasiticidal activity against Haemonchus contortus by larval assay.
Experiment [1] deals with Ctenocephalides felis. The experiment can be described thus: Parasiticidal activity against Ctenocephalides felis after 8 hrs by cat flea assay. On the set-up: concentration or dose not given beside the values.
Experiment [2] concerns Ctenocephalides felis. The experiment can be described thus: Parasiticidal activity against Ctenocephalides felis assessed as mortality after 24 hrs by cat flea assay. Also noted: concentration or dose not given beside the values.
In experiment [3] the test system is Ctenocephalides felis. Put plainly: Parasiticidal activity against Ctenocephalides felis by cat flea assay.
For experiment [4], the system named is Rhipicephalus sanguineus. The experiment can be described thus: Parasiticidal activity against Rhipicephalus sanguineus assessed per tick by brown dog tick assay.
The subject of experiment [5] is Rhipicephalus sanguineus. The experiment can be described thus: Parasiticidal activity against Rhipicephalus sanguineus assessed as mortality after 24 hrs by brown dog tick assay. On the set-up: concentration or dose not given beside the values.

For `CC/C(=N\OCc1ccc(F)cc1F)c1cc(Cl)ccc1NS(=O)(=O)C(F)(F)F`, in the experiment with Haemonchus contortus, the LD99 was 7.2 µM. Besides, the Activity in the experiment on Ctenocephalides felis [1] is reported as 95%.

`C/C(=N\Oc1ccccc1)c1cc(Cl)ccc1NS(=O)(=O)C(F)(F)F` gave an LD99 in the experiment with Haemonchus contortus of 14 µM. In addition, in the experiment on Ctenocephalides felis [1], the Activity came out at 6%.

For `CC/C(=N\OCc1ccc(C(C)(C)C)cc1)c1cc(Cl)ccc1NS(=O)(=O)C(F)(F)F`, in the experiment with Haemonchus contortus, the LD99 worked out at 6.9 µM. Besides, the Activity in the experiment on Ctenocephalides felis [1] worked out at 8%.

Consider `O=S(=O)(Nc1ccc(Cl)cc1/C(=N/OCc1ccc(C(F)(F)F)cc1C(F)(F)F)c1ccccc1)C(F)(F)F`, for which the LD99 in the experiment on Haemonchus contortus was found to be 3.1 µM. In addition, in the experiment on Ctenocephalides felis [1], the Activity was found to be 21%.

In the experiment with Haemonchus contortus, `O=S(=O)(Nc1ccc(Cl)cc1/C=N/OCc1ccc(C(F)(F)F)cc1C(F)(F)F)C(F)(F)F` displayed an LD99 of 0.59 µM. The compound further gave an Activity in the experiment with Ctenocephalides felis [1] of 10%.

For `C/C(=N\OCC1CCCC1)c1cc(Cl)ccc1NS(=O)(=O)C(F)(F)F`, the Activity worked out at 97% in the experiment on Ctenocephalides felis [2] and 100% in the experiment with Rhipicephalus sanguineus [5]. In addition, the LC50 in the experiment with Ctenocephalides felis [3] was 18 ng/cm2. Further, in the experiment with Rhipicephalus sanguineus [4], the LD50 was 2.2 µg. The compound also gave an LD99 in the experiment with Haemonchus contortus of 7.5 µM.

Compound `CCC/C(=N\OCc1ccc(C(F)(F)F)cc1)c1cc(Cl)ccc1NS(=O)(=O)C(F)(F)F` displayed an LD99 with Haemonchus contortus of 3.2 µM. Moreover, the Activity with Ctenocephalides felis [1] is recorded as 36%.

As to `C#CCO/N=C(\CC)c1cc(Cl)ccc1NS(=O)(=O)C(F)(F)F`, the Activity in the experiment on Ctenocephalides felis [2] and in the experiment on Rhipicephalus sanguineus [5] was 100% each time. Moreover, in the experiment with Ctenocephalides felis [3], the LC50 is listed as 27 ng/cm2. Further, in the experiment on Rhipicephalus sanguineus [4], the LD50 amounted to 0.86 µg. The compound further registered an LD99 in the experiment on Haemonchus contortus of 20 µM.

Turning to `CC/C(=N\OCc1cccs1)c1cc(Cl)ccc1NS(=O)(=O)C(F)(F)F`, the Activity with Ctenocephalides felis [2] was found to be 100%; with Rhipicephalus sanguineus [5] it was 70%. In the experiment on Ctenocephalides felis [3], this compound yielded an LC50 of 7 ng/cm2. Also, in the experiment on Rhipicephalus sanguineus [4], the LD50 amounted to 2.5 µg. This compound gave an LD99 in the experiment on Haemonchus contortus of 35 µM.

Consider `CC/C(=N\OCc1ccc(Cl)cc1)c1cc(Cl)ccc1NS(=O)(=O)C(F)(F)F`, for which the Activity in the experiment with Ctenocephalides felis [2] worked out at 100%; with Rhipicephalus sanguineus [5], 83%. The same compound displayed an LC50 with Ctenocephalides felis [3] of 12 ng/cm2. Also, in the experiment on Rhipicephalus sanguineus [4], the LD50 worked out at 2.5 µg. The LD99 in the experiment with Haemonchus contortus was found to be 1.7 µM.

Take `CC(C)/C(=N\Oc1ccc(Cl)cc1)c1cc(Cl)ccc1NS(=O)(=O)C(F)(F)F`: the Activity amounted to 100% with Ctenocephalides felis [2] and 65% in the experiment with Rhipicephalus sanguineus [5]. In the experiment with Ctenocephalides felis [3], the LC50 was found to be 71 ng/cm2. This compound registered an LD50 with Rhipicephalus sanguineus [4] of 1.7 µg. Moreover, in the experiment with Haemonchus contortus, the LD99 turned out to be 11 µM.

In the experiment on Haemonchus contortus, `CCC/C(=N\OCc1ccc(C(F)(F)F)cc1C(F)(F)F)c1cc(Cl)ccc1NS(=O)(=O)C(F)(F)F` came in with an LD99 of 2.5 µM. The compound also showed an Activity in the experiment with Ctenocephalides felis [1] of 79%.

With `CC/C(=N\OCC1CC1)c1cc(Cl)ccc1NS(=O)(=O)C(F)(F)F`, the Activity in the experiment with Ctenocephalides felis [2] and in the experiment with Rhipicephalus sanguineus [5] was 100% in each case. The compound further yielded an LC50 in the experiment with Ctenocephalides felis [3] of 8 ng/cm2. Further, in the experiment with Rhipicephalus sanguineus [4], the LD50 amounted to 1.2 µg. Besides, the LD99 with Haemonchus contortus is 36 µM.

For the compound `CC/C(=N\OC)c1cc(Cl)ccc1NS(=O)(=O)C(F)(F)F`, the values for the Activity with Ctenocephalides felis [2] and in the experiment with Rhipicephalus sanguineus [5] were 100% and 95%, respectively. This compound yielded an LC50 in the experiment on Ctenocephalides felis [3] of 15 ng/cm2. The compound further displayed an LD50 in the experiment with Rhipicephalus sanguineus [4] of 0.89 µg. For the same compound, the LD99 in the experiment on Haemonchus contortus stood at 16 µM.

As for `CC/C(=N\OC1CCCC1)c1cc(Cl)ccc1NS(=O)(=O)C(F)(F)F`, the Activity with Ctenocephalides felis [2] and in the experiment with Rhipicephalus sanguineus [5] was 100% each time. The LC50 in the experiment on Ctenocephalides felis [3] is listed as 21 ng/cm2. The compound further registered an LD50 in the experiment with Rhipicephalus sanguineus [4] of 1.5 µg. Moreover, the LD99 in the experiment on Haemonchus contortus was found to be 25 µM.

As to `C=CCO/N=C(\CC)c1cc(Cl)ccc1NS(=O)(=O)C(F)(F)F`, the Activity in the experiment with Ctenocephalides felis [2] and with Rhipicephalus sanguineus [5] was 100% in each case. The same compound came in with an LC50 in the experiment on Ctenocephalides felis [3] of 21 ng/cm2. Moreover, the LD50 with Rhipicephalus sanguineus [4] turned out to be 0.67 µg. The same compound showed an LD99 in the experiment with Haemonchus contortus of 32 µM.

Consider `CC/C(=N\OCc1ccc(C(F)(F)F)cc1)c1cc(Cl)ccc1NS(=O)(=O)C(F)(F)F`, for which the figures for the Activity in the experiment on Ctenocephalides felis [2] and with Rhipicephalus sanguineus [5] were 98% and 90%, respectively. For the same compound, the LC50 in the experiment with Ctenocephalides felis [3] came to 17 ng/cm2. In the experiment on Rhipicephalus sanguineus [4], this compound registered an LD50 of 2.7 µg. In the experiment with Haemonchus contortus, this compound registered an LD99 of 0.84 µM.
